Results on 3 compounds are retold here after patent US9671340B2, “Measurement method for determining an organ function” (SMARTDYELIVERY GMBH, priority 2010, dated 2017).

Read-outs that look alike come from different tables or passages of the source.

For series [1], the system named is cultivated hepatocytes. The experiment in a line: Cytotoxicity, survival of cultivated hepatocytes 24 h after addition of dye (MTT assay). Format: cell-based. How it is done:
FIG. 6: comparison of the cytotoxicity between ICG and DY635. In each case the survival of cultivated hepatocytes 24 h after addition of different concentration of the dyes is shown (MTT assay).

The nature of series [2]: In vivo determination of hepatocellular and canalicular transport by intravital epifluorescence microscopy of the liver. Further details: species or system WISTAR rats. The conditions noted are these: periportal and perivenous areas, up to 35 min after application. Here is the method: Changes to the hepatocellular uptake and the canalicular elimination were measured 15 h after sepsis or induction of the control group by in vivo imaging of the exclusively hepatocytically eliminated dye indocyanine green (Pulsion, Munich, Germany) and of DY635 using an inverted epiflourescence microscope (AxioObserver® Z1; Zeiss, Jena, Germany), equipped with a computer-controlled, highly-precise scanning platform (Marzhäuser, Wetzlar, Germany).
775 nm to 805 nm excitation and 845 nm to 855 nm emission bandpass filters were used to image the dye indocyanine green. […]
In order to locate 16 regions (regions of interest: ROI) for the in vivo imagings of the dye, the liver surface was rasterised; 8 pericentral and 8 periportal regions were established and the exact position thereof was determined on the computer-controlled scanning stage using AxioVision® software and stored so that the predefined ROI were accessible during future experiments. […]
Before the indocyanine green or DY635 was added, base line images of the defined ROI were recorded using the AxioVision® multi-channel module (×40/0.6 lens, 365 nm to 395 nm excitation and 445 nm to 450 nm emission bandpass filter and 775 nm to 805 nm excitation and 845 nm to 855 nm emission bandpass filter). […]

The conditions of series [3]: rat, in vivo. How it is done:
(§1) Male WISTAR rats (12-16 weeks old, body mass 400±50 g; Harlan Laboratories, Horst, Netherlands) were used in this study. All tests were carried out in accordance with the German laws for the protection of animals and with the approval of the regional animal protection commission in Bad Langensalza, Thuringia, Germany. The body temperature was kept constant at 37° during the surgical preparation and the experimental tests, in each case using a warming plate and a heatable specimen stage of the microscope. All preparations were carried out under aseptic conditions.
A special model of polymicrobial sepsis with some modifications was used, which was originally described by Bauhofer (Bauhofer et al., 2004, 2006; Lorenz et al., 2004). With this model the sepsis is induced by peritoneal contamination and infection (PCI).
A standardised human stool inoculum was used for the PCI. Immediately after collection, the stool sample was diluted 1:1 with pre-reduced thioglycolate-bouillion, containing 10% sterile barium sulphate and 10% glycerol, and was then homogenised under anaerobic conditions. Lastly, the stool samples were stored at −80° C. until use. Before the inoculation, the stool samples were diluted 1:4 in 0.9% NaCl. The inoculum was analysed microbiologically in order to establish the number of strains after storage. The rats were instrumented 24 h before the PCI and anaesthetised using Desflurane (Baxter, Munich, Germany) via a facemask. A jugular vein catheter (polyethylene, autoclave-sterilised, OD:1.0 mm, Portex, UK) was used for the fluid replacement and was tunneled subcutaneously as far as the approach to the nape of the neck. The catheter was mounted on a hinge-jointed retaining system, which enabled unrestricted movement in the cage after recovery from the anaesthetic.
In introductory studies, the dose of the inoculum was adapted such that a 100% mortality rate was achieved within 40 h. The animals were assigned randomly to the control group (sham) or the PCI group. With short ether anaesthesia, the inoculum was injected intraperitoneally into the pelvis region using a 21 G cannula. The animals in the control group (sham) received 0.9% NaCl in the same amount. After the procedure, both groups received fluid replacement (10 ml/kg/KG/h, Jonosteril®, Fresenius Kabi GmbH, Germany) as well as food and water ad libitum.
The plasma disappearance rate (PDR) and the bile excretion of the dyes DY635 (Dyomics, Jena, Germany) and indocyanine green as a comparative experiment (ICG; Pulsion, Munich, Germany) were determined in vivo.
The animals were anaesthetised 15 h after sepsis or induction of the control group.
An arterial catheter was used for haemodynamic monitoring. A midline and right subcostal laparotomy was performed and the ductus choledochus was provided with a polyethylene catheter (polyethylene, autoclave-sterilised, OD:1.0 mm, Portex, UK) for the collection of bile via a cannula. The wound was then closed using Mersilene 2-0 (Ethicon, Hamburg, Germany) and the anaesthetisation was maintained.
The dye was administered via a jugular vein catheter. The blood samples and bile samples were taken from the zero point and then every 15 min for a period of 60 min. Blood losses caused by these blood samples were adequately counter balanced by infusions. The haemodynamic monitoring was carried out continuously.

Series [4] can be described thus: Water solubility of the dye. Format: physicochemical.
Series [5] is described as follows: In vivo determination of kidney function, imaging of dye excretion via the kidneys. Further details: species or system WISTAR rats. How it is done:
as §1
Further experiments were carried out to ascertain kidney function using DY652 (data not shown here) and DY647.
The kidney tissue and the widely ramified kidney vascular system can be seen in the recorded images.
FIG. 7: in vivo imaging of the excretion of DY647 via the kidneys.

The conditions of series [6]: cited from earlier work.
For series [7] the following is noted: at clinically conventional dose; cited from earlier work.

Regarding `CC(C)(C)c1cc(/C=C/C=C2/N(CCCCCC(=O)O)c3ccc(S(=O)(=O)O)cc3C2(C)C)c2cc3c4c(c2[o+]1)CCCN4CCC3` [DY635], the “cytotoxicity in comparison with ICG” value in series [1] is “very low cytotoxicity”. Further, the “decrease of specific fluorescence intensity (dye concentration) in the organ tissue, compared with ICG” value in series [2] is “decreases much more sharply”. Moreover, in series [3] (male, Wistar), the “plasma concentration of the dye immediately after application, septic vs control animals” value was “Less DY635 in the plasma was traceable in the healthy animals than in the sick animals” and the “time to complete uptake of the dye into the hepatocytes” value is on record as not above 15 min. In series [3], the “accumulation of the dye in healthy animals, compared with ICG” value is “accumulates much less considerably in healthy animals than ICG”; the “detection of the dye in the kidneys or in the urine” value is reported as “could not be detected”; the “speed of canalicular excretion into the bile fluid, compared with ICG” value is on record as “excreted more quickly”.
For `CCN1/C(=C/C=C/C=C/C2=[N+](CC)c3ccc(S(=O)(=O)O)cc3C2(C)C)C(C)(CCCC(=O)O)c2cc(S(=O)(=O)O)ccc21` (stereo not drawn) [DY647, 2-{(1E,3E)-5-(3-(3-carboxy-propyl)-1-ethyl-3-methyl-5-sulfo-1,3-dihydro-indol-(2E)-ylidene]-penta-1,3-dienyl)-1-ethyl-3,3-dimethyl-5-sulfo-3H-indolium], the solubility in water entry in series [4] is “water-soluble”. For the same compound, the “location of the dye in the kidneys” value is “can be seen in the vascular system of the kidneys” in series [5] (5 minutes after application); “has left the vascular system and can be seen in the kidney tubules” in series [5] (after 90 minutes). Further, the “detection of the dye in urine after application” value in series [5] (after application) is listed as “detected in urine”. Further, in series [5] (in vivo measurements of the kidneys), the route of excretion entry is “excreted selectively via the kidneys”.
`CC1(C)C(/C=C/C=C/C=C/C=C2\N(CCCCS(=O)(=O)O)c3ccc4ccccc4c3C2(C)C)=[N+](CCCCS(=O)(=O)[O-])c2ccc3ccccc3c21` [ICG, indocyanine green]: in series [6] (current state of knowledge), the “metabolism and extrahepatic elimination” value was “neither metabolised nor eliminated extrahepatically”. Besides, the “time until the dye appears unconjugated in the bile” value in series [6] (following intravenous injection (0.1-0.5 mg/kg KG)) is listed as “approximately 8 min”. Also, in series [6] (following intravenous injection, within a short period of time), the “binding to plasma proteins” value is “fully bonded to plasma proteins”. Further, the toxicity entry in series [7] was “negligible toxicity”. Also, in series [3], the “dye concentration in the bile after 60 minutes” value was “high ICG values could still be measured” and the “plasma concentration of the dye immediately after application, septic vs control animals” value is “Less ICG can be traced in the plasma of the septic animals”.
